# Reference: patent US5753709A, “N-acyl-2 aryl cyclopropylmethylamine derivatives as melatonergics” (Bristol-Myers Squibb Company, priority 1996, dated 1998)
# Tested on: rats
# Assay: not given
# Conditions: exogenous administration; cited from earlier work
row,Structure (SMILES),effect on circadian rhythms
1,"COc1ccc2[nH]cc(CCNC(C)=O)c2c1 [melatonin, N-acetyl-5-methoxytryptamine]",found to synchronize circadian rhythms in rats

# Molecular target: T1, human melatonin receptor (human ML1A) (Homo sapiens, UniProt P48039)
# T1 construct: expressed in transfected cells; host or cells: COS-1 cells (transient, pcDNAI, DEAE-dextran); membrane homogenates
# Assay: Melatonergic binding: displacement of 2-[125I]-iodomelatonin at the human melatonin receptor (human ML1A in COS-1 membranes)
# Conditions: Table 5; displacement of 2[125I]-Iodomelatonin (100 pM), 37° C., 1 hour
# Protocol: The melatonergic binding of the compounds of Formula I was determined by a modification of the method of Reppert, S. M. et al. (Neuron, Volume 13, pages 1177-1185, 1994). […] The reagents, membranes, and other parameters used in the assay are described below:
# (a) 50 mM Tris buffer containing 12.5 mM MgCl2, and 2 mM EDTA (pH 7.4 at 37° C.).
# (b) Wash buffer: 20 mM Tris base containing 2 mM MgCl2 (pH 7.4 at room temperature).
# (c) 6-Chloromelatonin (10^-5 M final concentration).
# (d) 2-[^125 I]-Iodomelatonin (100 pM final concentration). (Source: NEN) Membrane preparation: The cDNA (human ML1A) in pcDNAI was introduced into COS-1 cells by the DEAE-dextran method. Three days later, after media removal, the plates were washed with buffered saline; the cells removed using Hank's balanced salt solution and pelleted. The supernant was discarded and the pellets frozen. For membrane homogenates, the pellets were thawed and resuspended in TME buffer, Tris base, MgCl2, EDTA (pH 7.4 at 37° C.), and supplemented with aprotinin, leupeptin, and phenylmethylsulfonyl fluoride. The cells were homogenized and centrifuged; the resulting pellet resuspended in TME and frozen. At assay, the small aliquot was thawed on ice and resuspended in TME buffer. Incubation: 37° C. for 1 hour. Reaction is terminated by filtration.
# T1 sequence (P48039 whole entry): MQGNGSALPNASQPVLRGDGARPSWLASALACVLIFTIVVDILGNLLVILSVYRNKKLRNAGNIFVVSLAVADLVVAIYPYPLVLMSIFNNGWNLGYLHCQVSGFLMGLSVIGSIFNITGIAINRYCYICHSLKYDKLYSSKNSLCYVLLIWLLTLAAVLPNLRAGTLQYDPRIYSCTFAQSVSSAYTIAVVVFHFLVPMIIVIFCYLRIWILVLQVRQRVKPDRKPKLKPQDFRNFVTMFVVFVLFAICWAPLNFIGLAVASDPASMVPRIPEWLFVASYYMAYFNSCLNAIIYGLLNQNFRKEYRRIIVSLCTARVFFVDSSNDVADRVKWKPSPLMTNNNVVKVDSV
row,Structure (SMILES),IC50 [nM]
1,"CCCC(=O)NC[C@@H]1C[C@H]1c1cccc(OCCc2ccccc2F)c1 (relative stereo) [Example 128, (trans)-N-[[2-[3-[2-(2-Fluorophenyl)ethoxy]phenyl]cycloprop-1-yl]methyl] butanamide]",5 to 40
2,"CC(C)C(=O)NC[C@@H]1C[C@H]1c1cccc(F)c1 (single isomer, unassigned) [Example 65, (-)-(trans)-N-[[2-(3-Fluorophenyl)cycloprop-1-yl]methyl]-2-methylpropanamide]",250 to 600
3,"CCCC(=O)NC[C@@H]1C[C@H]1c1ccccc1 (single isomer, unassigned) [Example 90, (-)-(trans)-N-[(2-Phenylcycloprop-1-yl)methyl] butanamide]",40 to 250
4,"CCCC(=O)NC[C@@H]1C[C@H]1c1cc(OCCCc2cccc(OC)c2)ccc1I (single isomer, unassigned) [Example 93, (-)-(trans)-N-[[2-[2-Iodo-5-[3-(3-methoxyphenyl)propoxy]phenyl]cycloprop-1-yl)methyl] butanamide]",5 to 40

# Next, values leading:
row,IC50 [nM],Structure (SMILES)
1,< 5,"CCCC(=O)NC[C@@H]1C[C@H]1c1cccc(OCCCCCc2ccccc2)c1 (relative stereo) [Example 110, (trans)-N-[[2-[3-[(5-Phenylpent-1-yl)oxy]phenyl]cycloprop-1-yl]methyl] butanamide]"
2,5 to 40,"CCCC(=O)NC[C@@H]1C[C@H]1c1cccc(CC)c1 (relative stereo) [Example 114, (trans)-N-[2-[(3-Ethylphenyl)cycloprop-1-yl]methyl] butanamide]"
3,5 to 40,CCCC(=O)NC[C@@H]1C[C@H]1c1cccc(OCCCCC2CCCCC2)c1 (relative stereo) [Example 116]
4,< 5,"CCCC(=O)NC[C@@H]1C[C@H]1c1cccc(OCCCC2CCCC2)c1 (relative stereo) [Example 120, (trans)-N-[[2-[3-[(3-Cyclopentylprop-1-yl)oxy]phenyl]cycloprop-1-yl]methyl] butanamide]"
5,5 to 40,CCCC(=O)NC[C@@H]1C[C@H]1c1cccc(OCCC(C)CC(C)(C)C)c1 (relative stereo) [Example 121]
6,5 to 40,C#CC(C)=CCOc1cccc([C@@H]2C[C@H]2CNC(=O)CCC)c1 (relative stereo) [Example 122]
7,< 5,"CCCC(=O)NC[C@@H]1C[C@H]1c1cccc(OCCc2cccc(C(F)(F)F)c2)c1 (relative stereo) [Example 123, (trans)-N-[[2-[3-[2-[3-(Trifluoromethyl)phenyl]ethoxy]phenyl]cycloprop-1-yl]methyl] butanamide]"
8,5 to 40,"CCCC(=O)NC[C@@H]1C[C@H]1c1cccc(OCCc2cccc(F)c2)c1 (relative stereo) [Example 125, (trans)-N-[[2-[3-[2-(3-Fluorophenyl)ethoxy]phenyl]cycloprop-1-yl]methyl] butanamide]"
9,5 to 40,"CCCC(=O)NC[C@@H]1C[C@H]1c1cccc(OCCCc2ccc(OC)cc2)c1 (relative stereo) [Example 127, (trans)-N-[[2-[3-[3-(4-Methoxyphenyl)propoxy]phenyl]cycloprop-1-yl]methyl]butanamide]"
10,< 5,"CCCC(=O)NC[C@@H]1C[C@H]1c1cccc(OCCCc2cccc(OC)c2)c1 (single isomer, unassigned) [Example 84, (-)-(trans)-N-[[2-[3-[3-(3-Methoxyphenyl)propoxy]phenyl]cycloprop-1-yl)methyl] butanamide]"

# Same assay, conditions: Table 6; displacement of 2[125I]-Iodomelatonin (100 pM), 37° C., 1 hour
row,IC50 [nM],Structure (SMILES)
1,40 to 250,"COc1cccc([C@H]2[C@H](CNC(=O)C(C)C)C2(F)F)c1 (relative stereo) [Example 134, (trans)-N-[[3-(3-Methoxyphenyl)-2,2-difluoro--cycloprop-1-yl]methyl]-2-methylpropanamide]"
2,250 to 600,"CCCC(=O)NCC[C@@H]1C[C@H]1c1cccc(OC)c1 (single isomer, unassigned) [Example 16, (-)-(trans)-N-[[2-(3-Methoxyphenyl)cyclopropyl]ethyl]butanamide]"

# Same assay, conditions: read-out: Binding affinity (IC50) at the human melatonin receptor; Table 5; displacement of 2[125I]-Iodomelatonin (100 pM), 37° C., 1 hour
row,IC50 [nM],Structure (SMILES)
1,< 5,"[2H]C([2H])([2H])Oc1cccc([C@@H]2C[C@H]2CNC(=O)CCC)c1 (relative stereo) [Example 111, (trans)-N-[2-[(3-Trideuteromethoxyphenyl)cycloprop-1-yl]methyl] butanamide]"
